The source of these data is ChEMBL document CHEMBL3232777, “QSAR models for HEPT derivates as NNRTI inhibitors based on Monte Carlo method” (Eur J Med Chem, 2014).

Structures are written as SMILES.

For the test, the system named is Human immunodeficiency virus 1. The test is described as follows: Antiviral activity against HIV1 3B infected in human MT4 cells assessed as protection from cytopathic effect. Type of test: functional, organism-based. The note with it: Human immunodeficiency virus 1, 3B.

In general, IC50 refers to the concentration that gives 50% inhibition. Regarding `Cc1c(Sc2ccccc2)n(COCCO)c(=O)[nH]c1=O` [HEPT], the half-maximal inhibitory concentration (IC50) is 7.08 µM.
